Reference: patent US7291622B2, “Medical uses of carbamate-substituted pyrazolo-pyridine derivatives” (Bayer Aktiengesellschaft, priority 2000, dated 2007)

Tested on: rabbit aorta rings
Experiment: Vasorelaxant effect in vitro (phenylephrine-contracted rabbit aorta rings)
Details: Oryctolagus cuniculus; rabbit aortic rings, phenylephrine contraction; concentration reducing height of control contraction by 50%
Method: Vasorelaxant Effect In Vitro
Rabbits are stunned by a blow to the back of the neck and are exsanguinated. The aorta is removed, freed of adherent tissue and divided into rings 1.5 mm wide, which are put singly under tension in 5 ml organ baths containing carbogen-gassed Krebs-Henseleit solution at 37° C. with the following composition (mM): NaCl: 119; KCl: 4.8; CaCl2×2H2O: 1; MgSO4×7H2O: 1.4; KH2PO4: 1.2; NaHCO3: 25; glucose: 10. The force of contraction is detected with Statham UC2 cells, amplified and digitized via A/D converters (DAS-1802 HC, Keithley Instruments Munich) and recorded in parallel on chart recorders. A contraction is generated by adding phenylephrine to the bath cumulatively in increasing concentration. After several control cycles, the substance to be investigated is investigated in each further run in increasing dosage in each case, and the height of the contraction is compared with the height of the contraction reached in the last preceding run. The concentration necessary to reduce the height of the control value by 50% (IC50) is calculated from this. The standard application volume is 5 μl, and the DMSO content in the bath solution corresponds to 0.1%.

| SMILES | IC50 [nM] |
| --- | --- |
| C=CCN(CC=C)C(=O)Oc1cnc(-c2nn(Cc3ccccc3F)c3ncccc23)nc1N [Example 11] | 520 |
| CCOC(=O)CN(C(=O)Oc1cnc(-c2nn(Cc3ccccc3F)c3ncccc23)nc1N)C(C)COC (centres unmarked) [Example 15] | 320 |
| CN(C)C(=S)Oc1cnc(-c2nn(Cc3ccccc3F)c3ncccc23)nc1N [Example 19] | 420 |
| Nc1nc(-c2nn(Cc3ccccc3F)c3ncccc23)ncc1CC(=O)N1CCOCC1 [Example 2] | 650 |
| CCN(CC)C(=O)Nc1nc(-c2nn(Cc3ccccc3F)c3ncccc23)ncc1OC(=O)N(CC)CC [Example 26, 4-{[(Diethylamino)carbonyl]amino}-2-[1-(2-fluorobenzyl)-1H-pyrazolo[3,4-b]pyridin-3-yl]-5-pyrimidinyl diethylcarbamate] | 340 |
